These results are taken from US20230257372A1 (CHONG KUN DANG PHARMACEUTICAL CORP., priority 2020, published 2023).

Experiment [1] addresses T1, human recombinant HDAC1 (Homo sapiens, UniProt Q13547).
T1 construct: purchased Enzo Life Science, Inc. BML-SE456
Briefly: HDAC1 enzyme activity inhibition (HDAC Fluorimetric Drug Discovery Kit). The conditions noted are these: read-out: HDAC1. Format: biochemical. The gist of the method: (§1)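 Fluorimetric deacetylase read-out. 5-fold compound dilutions; […] enzyme, 10 μM substrate; 30° C, 60 min; developer 30 min.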

Experiment [2] has as its target T2, human recombinant HDAC6 (Homo sapiens, UniProt Q9UBN7).
T2 construct: purchased Calbiochem Inc. 382180
T2 sequence (Q9UBN7 1-1215): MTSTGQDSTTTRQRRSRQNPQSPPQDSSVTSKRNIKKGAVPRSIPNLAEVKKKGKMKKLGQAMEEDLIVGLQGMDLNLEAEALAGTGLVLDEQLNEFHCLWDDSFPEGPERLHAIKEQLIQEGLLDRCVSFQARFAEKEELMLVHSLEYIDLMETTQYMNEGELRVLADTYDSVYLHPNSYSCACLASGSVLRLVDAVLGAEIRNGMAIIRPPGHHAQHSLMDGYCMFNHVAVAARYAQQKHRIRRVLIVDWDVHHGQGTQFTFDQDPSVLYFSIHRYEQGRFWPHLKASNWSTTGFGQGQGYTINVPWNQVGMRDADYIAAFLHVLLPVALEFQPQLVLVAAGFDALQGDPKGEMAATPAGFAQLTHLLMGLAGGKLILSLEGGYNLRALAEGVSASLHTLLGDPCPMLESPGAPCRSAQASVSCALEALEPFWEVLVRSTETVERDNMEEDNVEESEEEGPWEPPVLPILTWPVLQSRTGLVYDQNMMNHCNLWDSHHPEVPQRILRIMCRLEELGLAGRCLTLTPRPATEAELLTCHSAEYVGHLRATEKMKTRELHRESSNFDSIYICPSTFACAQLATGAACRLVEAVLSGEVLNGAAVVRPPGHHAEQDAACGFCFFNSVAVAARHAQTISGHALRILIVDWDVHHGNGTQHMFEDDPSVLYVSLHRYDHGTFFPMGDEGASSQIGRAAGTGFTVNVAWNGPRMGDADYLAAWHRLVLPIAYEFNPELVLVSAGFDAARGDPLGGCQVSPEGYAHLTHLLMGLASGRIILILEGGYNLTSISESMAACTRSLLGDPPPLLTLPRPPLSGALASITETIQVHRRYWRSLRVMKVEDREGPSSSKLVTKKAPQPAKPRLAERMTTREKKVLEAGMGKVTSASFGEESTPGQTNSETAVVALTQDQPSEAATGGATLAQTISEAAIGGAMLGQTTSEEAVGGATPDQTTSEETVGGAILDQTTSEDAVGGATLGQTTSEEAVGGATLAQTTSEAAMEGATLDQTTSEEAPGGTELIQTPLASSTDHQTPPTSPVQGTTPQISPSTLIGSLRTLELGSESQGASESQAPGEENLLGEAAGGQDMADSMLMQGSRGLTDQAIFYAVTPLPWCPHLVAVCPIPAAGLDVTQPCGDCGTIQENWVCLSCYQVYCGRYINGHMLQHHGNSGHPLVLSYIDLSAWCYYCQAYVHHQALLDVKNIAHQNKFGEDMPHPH
The experiment can be described thus: HDAC6 enzyme activity inhibition (HDAC Fluorimetric Drug Discovery Kit). Format: biochemical. The gist of the method: as §1

Where [3] appears, read: human recombinant HDAC1, IC50 calculated with GraphPad Prism.
Where [4] appears, read: human recombinant HDAC6, IC50 calculated with GraphPad Prism.
Where [5] appears, read: human recombinant HDAC1, Fluor de Lys substrate, 30° C. 60 minutes.
The mark [6] stands for this setting: human recombinant HDAC6, same protocol as HDAC1.

Like-named read-outs stand apart in the source and are kept apart here. A value given as a limit tells only on which side of the number the result lay.

T1 sequence (Q13547 whole entry): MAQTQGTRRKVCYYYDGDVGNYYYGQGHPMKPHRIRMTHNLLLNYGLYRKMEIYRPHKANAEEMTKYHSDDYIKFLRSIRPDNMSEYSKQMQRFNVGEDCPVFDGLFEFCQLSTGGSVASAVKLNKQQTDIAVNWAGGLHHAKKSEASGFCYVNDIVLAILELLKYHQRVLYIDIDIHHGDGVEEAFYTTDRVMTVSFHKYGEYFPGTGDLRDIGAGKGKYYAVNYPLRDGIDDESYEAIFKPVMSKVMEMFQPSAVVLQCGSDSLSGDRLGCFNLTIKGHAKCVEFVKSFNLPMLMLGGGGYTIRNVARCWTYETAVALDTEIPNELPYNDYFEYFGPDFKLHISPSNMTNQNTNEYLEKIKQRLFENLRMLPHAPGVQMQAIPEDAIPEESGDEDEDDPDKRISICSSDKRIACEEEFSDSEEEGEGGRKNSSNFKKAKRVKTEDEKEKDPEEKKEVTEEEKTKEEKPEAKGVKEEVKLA

With `CCN1CC(N2CCc3cc(-c4cn(Cc5ccc(-c6nnc(C(F)F)o6)cc5F)nn4)ccc3C2)C1` [Compound 4392, 2-(difluoromethyl)-5-(4-((4-(2-(1-ethylazetidin-3-yl)-1,2,3,4-tetrahydroisoquinolin-6-yl)-1H-1,2,3-triazol-1-yl)methyl)-3-fluorophenyl)-1,3,4-oxadiazole], the IC50 in experiment [1] (setting [3]) is above 50 µM; in experiment [2] (setting [4]), 0.0396 µM. The “HDAC6 selectivity (fold)” value in experiment [2] (HDAC1 IC50 / HDAC6 IC50) is listed as 1262 fold.

Regarding `Fc1cc(-c2nnc(C(F)F)o2)ccc1Cn1cc(-c2ccnc(N3CCN(C4COC4)CC3)c2)nn1` [Compound 4636], the IC50 in experiment [1] (setting [5]) was above 50 µM; in experiment [2] (setting [6]), 0.0319 µM. Also, the “HDAC6 selectivity (fold)” value in experiment [2] (HDAC6 over HDAC1) is recorded as 1567 fold.

For the compound `FC(F)c1nnc(-c2ccc(Cn3cc(-c4cc(C(F)(F)F)cc(C(F)(F)F)c4)nn3)cc2)o1` [Compound 3695, 2-(4-((4-(3,5-bis(trifluoromethyl)phenyl)-1H-1,2,3-triazol-1-yl)methyl)phenyl)-5-(difluoromethyl)-1,3,4-oxadiazole], the figures for the IC50 in experiment [1] (setting [3]) and in experiment [2] (setting [4]) were above 50 µM and 1.19 µM, respectively. Also, the “HDAC6 selectivity (fold)” value in experiment [2] (HDAC1 IC50 / HDAC6 IC50) turned out to be 42 fold.

Take `CCN1CCCC(c2cn(Cc3ccc(-c4nnc(C(F)F)o4)cn3)nn2)C1` (stereo not drawn) [Compound 4002, 2-(difluoromethyl)-5-(6-((4-(1-ethylpiperidin-3-yl)-1H-1,2,3-triazol-1-yl)methyl)pyridin-3-yl)-1,3,4-oxadiazole]: the results for the IC50 in experiment [1] (setting [3]) and in experiment [2] (setting [4]) were above 50 µM and 0.52 µM, respectively. The “HDAC6 selectivity (fold)” value in experiment [2] (HDAC1 IC50 / HDAC6 IC50) came to 96 fold.

On to `CCN1Cc2cccc(-c3cn(Cc4ccc(-c5nnc(C(F)F)o5)cc4)nn3)c2C1` [Compound 4530, 2-(difluoromethyl)-5-(4-((4-(2-ethylisoindolin-4-yl)-1H-1,2,3-triazol-1-yl)methyl)phenyl)-1,3,4-oxadiazole], for which the figures for the IC50 in experiment [1] (setting [5]) and in experiment [2] (setting [6]) were above 50 µM and 0.111 µM, respectively. In addition, in experiment [2] (HDAC6 over HDAC1), the “HDAC6 selectivity (fold)” value was 449 fold.

As for `CC(C)N1CCN(c2cc(-c3cn(Cc4ccc(-c5nnc(C(F)F)o5)cc4)nn3)ccc2F)CC1` [Compound 4421, 2-(difluoromethyl)-5-(4-((4-(4-fluoro-3-(4-isopropylpiperazin-1-yl)phenyl)-1H-1,2,3-triazol-1-yl)methyl)phenyl)-1,3,4-oxadiazole], the IC50 is above 50 µM in experiment [1] (setting [3]) and 0.247 µM in experiment [2] (setting [4]). Besides, in experiment [2] (HDAC1 IC50 / HDAC6 IC50), the “HDAC6 selectivity (fold)” value was found to be 202 fold.

Regarding `FC(F)c1nnc(-c2ccc(Cn3cc(-c4cccc5cc[nH]c45)nn3)nc2)o1` [Compound 4071, 2-(6-((4-(1H-indol-7-yl)-1H-1,2,3-triazol-1-yl)methyl)pyridin-3-yl)-5-(difluoromethyl)-1,3,4-oxadiazole], the IC50 in experiment [1] (setting [3]) is above 50 µM; in experiment [2] (setting [4]), 0.144 µM. In addition, the “HDAC6 selectivity (fold)” value in experiment [2] (HDAC1 IC50 / HDAC6 IC50) is 347 fold.

For `FC(F)c1nnc(-c2ccc(Cn3cc(-c4ccccc4)cn3)nc2)o1` [Compound 4133, 2-(difluoromethyl)-5-(6-((4-phenyl-1H-pyrazol-1-yl)methyl)pyridin-3-yl)-1,3,4-oxadiazole], the IC50 was above 50 µM in experiment [1] (setting [3]) and 0.113 µM in experiment [2] (setting [4]). In addition, the “HDAC6 selectivity (fold)” value in experiment [2] (HDAC1 IC50 / HDAC6 IC50) turned out to be 444 fold.

In the case of `CN(C)c1cccc(-c2cn(Cc3ccc(-c4nnc(C(F)F)o4)cc3)nn2)c1` [Compound 4323, 3-(1-(4-(5-(difluoromethyl)-1,3,4-oxadiazol-2-yl)benzyl)-1H-1,2,3-triazol-4-yl)-N,N-dimethylaniline], the figures for the IC50 in experiment [1] (setting [3]) and in experiment [2] (setting [4]) were above 50 µM and 0.161 µM, respectively. Also, the “HDAC6 selectivity (fold)” value in experiment [2] (HDAC1 IC50 / HDAC6 IC50) is recorded as 310 fold.

Regarding `FC(F)c1nnc(-c2ccc(Cn3cc(-c4cccc(CN5CC(F)(F)C5)c4)nn3)nc2)o1` [Compound 4400, 2-(6-((4-(3-((3,3-difluoroazetidin-1-yl)methyl)phenyl)-1H-1,2,3-triazol-1-yl)methyl)pyridin-3-yl)-5-(difluoromethyl)-1,3,4-oxadiazole], the figures for the IC50 in experiment [1] (setting [3]) and in experiment [2] (setting [4]) were above 50 µM and 0.0307 µM, respectively. For the same compound, the “HDAC6 selectivity (fold)” value in experiment [2] (HDAC1 IC50 / HDAC6 IC50) came out at 1628 fold.

As to `Fc1cc(-c2nnc(C(F)F)o2)ccc1Cn1cc(-c2ccc(CN3CCC3)nc2)nn1` [Compound 18174, 2-(4-((4-(6-(azetidin-1-ylmethyl)pyridin-3-yl)-1H-1,2,3-triazol-1-yl)methyl)-3-fluorophenyl)-5-(difluoromethyl)-1,3,4-oxadiazole], the IC50 in experiment [1] (setting [5]) is above 50 µM; in experiment [2] (setting [6]), 0.051 µM. Moreover, the “HDAC6 selectivity (fold)” value in experiment [2] (HDAC6 over HDAC1) came to 980 fold.

With `CC(C)N1Cc2cccc(-c3cn(Cc4ccc(-c5nnc(C(F)F)o5)cc4F)nn3)c2C1` [Compound 4536, 2-(difluoromethyl)-5-(3-fluoro-4-((4-(2-isopropylisoindolin-4-yl)-1H-1,2,3-triazol-1-yl)methyl)phenyl)-1,3,4-oxadiazole], the IC50 in experiment [1] (setting [5]) is above 50 µM; in experiment [2] (setting [6]), 0.0874 µM. In experiment [2] (HDAC6 over HDAC1), the “HDAC6 selectivity (fold)” value is reported as 572 fold.

Regarding `Fc1c(-c2cn(Cc3ccc(-c4nnc(C(F)F)o4)cn3)nn2)cccc1N1CCN(C2COC2)CC1` [Compound 4573, 2-(difluoromethyl)-5-(6-((4-(2-fluoro-3-(4-(oxetan-3-yl)piperazin-1-yl)phenyl)-1H-1,2,3-triazol-1-yl)methyl)pyridin-3-yl)-1,3,4-oxadiazole], the IC50 was above 50 µM in experiment [1] (setting [5]) and 0.0216 µM in experiment [2] (setting [6]). Besides, the “HDAC6 selectivity (fold)” value in experiment [2] (HDAC6 over HDAC1) is 2314 fold.

Consider `Fc1cc(-c2nnc(C(F)F)o2)ccc1Cn1cc(-c2ccccc2CN2CCC2)nn1` [Compound 4583, 2-(4-((4-(2-(azetidin-1-ylmethyl)phenyl)-1H-1,2,3-triazol-1-yl)methyl)-3-fluorophenyl)-5-(difluoromethyl)-1,3,4-oxadiazole], for which the results for the IC50 in experiment [1] (setting [5]) and in experiment [2] (setting [6]) were above 50 µM and 0.36 µM, respectively. Moreover, the “HDAC6 selectivity (fold)” value in experiment [2] (HDAC6 over HDAC1) turned out to be 138 fold.

For `CC(=O)N1CCC(Nc2ccc(F)c(-c3cn(Cc4ccc(-c5nnc(C(F)F)o5)cc4F)nn3)c2)CC1` [Compound 4437, 1-(4-((3-(1-(4-(5-(difluoromethyl)-1,3,4-oxadiazol-2-yl)-2-fluorobenzyl)-1H-1,2,3-triazol-4-yl)-4-fluorophenyl)amino)piperidin-1-yl)ethan-1-one], the values for the IC50 in experiment [1] (setting [3]) and in experiment [2] (setting [4]) were above 50 µM and 0.0833 µM, respectively. In addition, in experiment [2] (HDAC1 IC50 / HDAC6 IC50), the “HDAC6 selectivity (fold)” value was 600 fold.

Regarding `Fc1cc(-c2nnc(C(F)F)o2)cnc1Cn1cc(-c2ccc3cn[nH]c3c2)nn1` [Compound 18919, 2-(6-((4-(1H-indazol-6-yl)-1H-1,2,3-triazol-1-yl)methyl)-5-fluoropyridin-3-yl)-5-(difluoromethyl)-1,3,4-oxadiazole], the results for the IC50 in experiment [1] (setting [5]) and in experiment [2] (setting [6]) were above 50 µM and 0.0602 µM, respectively. Further, the “HDAC6 selectivity (fold)” value in experiment [2] (HDAC6 over HDAC1) is 830 fold.

For the compound `Cc1csc(-c2cn(Cc3ccc(-c4nnc(C(F)F)o4)cc3F)nn2)n1` [Compound 17854, 2-(difluoromethyl)-5-(3-fluoro-4-((4-(4-methylthiazol-2-yl)-1H-1,2,3-triazol-1-yl)methyl)phenyl)-1,3,4-oxadiazole], the IC50 in experiment [1] (setting [5]) is above 50 µM; in experiment [2] (setting [6]), 0.0834 µM. Moreover, in experiment [2] (HDAC6 over HDAC1), the “HDAC6 selectivity (fold)” value turned out to be 599 fold.

Regarding `CCN1CCC(c2cccc(-c3cn(Cc4ccc(-c5nnc(C(F)F)o5)cc4F)nn3)c2)CC1` [Compound 4291, 2-(difluoromethyl)-5-(4-((4-(3-(1-ethylpiperidin-4-yl)phenyl)-1H-1,2,3-triazol-1-yl)methyl)-3-fluorophenyl)-1,3,4-oxadiazole], the IC50 in experiment [1] (setting [3]) is above 50 µM; in experiment [2] (setting [4]) it was 0.0427 µM. For the same compound, the “HDAC6 selectivity (fold)” value in experiment [2] (HDAC1 IC50 / HDAC6 IC50) was 1170 fold.

Take `CC(C)N1CCN(c2ccc(F)c(-c3cn(Cc4ccc(-c5nnc(C(F)F)o5)cc4)nn3)c2)CC1` [Compound 4453, 2-(difluoromethyl)-5-(4-((4-(2-fluoro-5-(4-isopropylpiperazin-1-yl)phenyl)-1H-1,2,3-triazol-1-yl)methyl)phenyl)-1,3,4-oxadiazole]: the IC50 in experiment [1] (setting [3]) was above 50 µM; in experiment [2] (setting [4]) it was 0.0159 µM. In addition, the “HDAC6 selectivity (fold)” value in experiment [2] (HDAC1 IC50 / HDAC6 IC50) is reported as 3144 fold.
